Assay results: patent US7709471B2, “Compounds” (AstraZeneca AB, priority 2006, dated 2010)
pIC50: −log10 of the molar value. Read-outs that look alike come from different tables or passages of the source.

Test system: human colon tumour cell line HT29
Test: Cellular Assay (phosphohistone H3 Ser10 mitotic marker, HT29)
Format: cell-based
Details: read-out: IC50 (cellular assay, phosphohistone H3)

SMILES	pIC50 (HT-29, 24 h, HT29 cells)	pIC50 (HT-29, HT29 cells, 24 h)
CN1CCC(NC(=O)c2ccc(Nc3ncc4c(n3)N(C3CCCC3)CCC(=O)N4C)cc2)CC1 [Example 2, 4-[(2-cyclopentyl-6-methyl-5-oxo-2,6,9,11-tetrazabicyclo[5.4.0]undeca-8,10,12-trien-10-yl)amino]-N-(1-methyl-4-piperidyl)benzamide]		> 6.52
C#CCN1CCC(=O)N(C)c2cnc(Nc3ccc(C(=O)NC4CCN(C)CC4)cc3OC)nc21 [Example 271, 3-methoxy-4-[(6-methyl-5-oxo-2-prop-2-ynyl-2,6,9,11-tetrazabicyclo[5.4.0]undeca-7,9,11-trien-10-yl)amino]-N-(1-methyl-4-piperidyl)benzamide]	> 4.52	
COc1cc(C(=O)NC2C[C@H]3CCC[C@@H](C2)N3C)ccc1Nc1ncc2c(n1)N(C1CCCC1)CC(C)(C)C(=O)N2 (stereo partly drawn) [Example 278, 4-[(2-cyclopentyl-4,4-dimethyl-5-oxo-2,6,9,11-tetrazabicyclo[5.4.0]undeca-7,9,11-trien-10-yl)amino]-3-methoxy-N-[(1S,5R)-9-methyl-9-azabicyclo[3.3.1]non-7-yl]benzamide]	> 6.00	
CCOc1cc(C(=O)N[C@@H]2CCN(C)C2)ccc1Nc1ncc2c(n1)N(C(C)C)CCC(=O)N2C [Example 284, 3-ethoxy-4-[(6-methyl-5-oxo-2-propan-2-yl-2,6,9,11-tetrazabicyclo[5.4.0]undeca-7,9,11-trien-10-yl)amino]-N-[(3R)-1-methylpyrrolidin-3-yl]benzamide]	> 4.52	
CCOc1cc(C(=O)NC2CCC(N(C)C)CC2)ccc1Nc1ncc2c(n1)N(C(C)C)CCC(=O)N2C (stereo not drawn) [Example 286, N-(4-dimethylaminocyclohexyl)-3-ethoxy-4-[(6-methyl-5-oxo-2-propan-2-yl-2,6,9,11-tetrazabicyclo[5.4.0]undeca-7,9,11-trien-10-yl)amino]benzamide]	> 4.52	
CCN1CCC(NC(=O)c2cc(Cl)c(Nc3ncc4c(n3)N(C(C)C)CC(C)(C)C(=O)N4C)cc2F)CC1 [Example 290, 5-chloro-N-(1-ethyl-4-piperidyl)-2-fluoro-4-[(4,4,6-trimethyl-5-oxo-2-propan-2-yl-2,6,9,11-tetrazabicyclo[5.4.0]undeca-7,9,11-trien-10-yl)amino]benzamide]	> 6.00	
CC(C)N1CC(C)(C)C(=O)N(C)c2cnc(Nc3cc(F)c(C(=O)NC4CCC(N(C)C)CC4)cc3Cl)nc21 (stereo not drawn) [Example 291, 5-chloro-N-(4-dimethylaminocyclohexyl)-2-fluoro-4-[(4,4,6-trimethyl-5-oxo-2-propan-2-yl-2,6,9,11-tetrazabicyclo[5.4.0]undeca-7,9,11-trien-10-yl)amino]benzamide]	> 6.52	
CCOc1cc(C(=O)NC2CCC(N(C)C)CC2)ccc1Nc1ncc2c(n1)N(C(C)C)CC(C)(C)C(=O)N2C (stereo not drawn) [Example 294, N-(4-dimethylaminocyclohexyl)-3-ethoxy-4-[(4,4,6-trimethyl-5-oxo-2-propan-2-yl-2,6,9,11-tetrazabicyclo[5.4.0]undeca-7,9,11-trien-10-yl)amino]benzamide]	> 6.00	
CCOc1cc(C(=O)NC2CCN(C)CC2)c(F)cc1Nc1ncc2c(n1)N(C(C)C)CC(C)(C)C(=O)N2C [Example 296, 5-ethoxy-2-fluoro-N-(1-methyl-4-piperidyl)-4-[(4,4,6-trimethyl-5-oxo-2-propan-2-yl-2,6,9,11-tetrazabicyclo[5.4.0]undeca-7,9,11-trien-10-yl)amino]benzamide]	> 4.52	
CCOc1cc(C(=O)N[C@@H]2CCN(C)C2)c(F)cc1Nc1ncc2c(n1)N(C(C)C)CC(C)(C)C(=O)N2C [Example 297, 5-ethoxy-2-fluoro-N-[(3R)-1-methylpyrrolidin-3-yl]-4-[(4,4,6-trimethyl-5-oxo-2-propan-2-yl-2,6,9,11-tetrazabicyclo[5.4.0]undeca-7,9,11-trien-10-yl)amino]benzamide]	> 4.52	
COc1cc(C(=O)N[C@@H]2CCN(C)C2)ccc1Nc1ncc2c(n1)N(C(C)C)CC(C)(C)C(=O)N2C [Example 299, 3-methoxy-N-[(3R)-1-methylpyrrolidin-3-yl]-4-[(4,4,6-trimethyl-5-oxo-2-propan-2-yl-2,6,9,11-tetrazabicyclo[5.4.0]undeca-7,9,11-trien-10-yl)amino]benzamide]	> 6.52	
CCN1CCC(NC(=O)c2ccc(Nc3ncc4c(n3)N(C(C)C)CC(C)(C)C(=O)N4C)c(OC)c2)CC1 [Example 300, N-(1-ethyl-4-piperidyl)-3-methoxy-4-[(4,4,6-trimethyl-5-oxo-2-propan-2-yl-2,6,9,11-tetrazabicyclo[5.4.0]undeca-7,9,11-trien-10-yl)amino]benzamide]	> 6.52	
COc1cc(C(=O)NCCN2CCCC2)ccc1Nc1ncc2c(n1)N(C(C)C)CC(C)(C)C(=O)N2C [Example 301, 3-methoxy-N-(2-pyrrolidin-1-ylethyl)-4-[(4,4,6-trimethyl-5-oxo-2-propan-2-yl-2,6,9,11-tetrazabicyclo[5.4.0]undeca-7,9,11-trien-10-yl)amino]benzamide]	> 6.00	
COc1cc(C(=O)NCCN(C)C)ccc1Nc1ncc2c(n1)N(C(C)C)CC(C)(C)C(=O)N2C [Example 302, N-(2-dimethylaminoethyl)-3-methoxy-4-[(4,4,6-trimethyl-5-oxo-2-propan-2-yl-2,6,9,11-tetrazabicyclo[5.4.0]undeca-7,9,11-trien-10-yl)amino]benzamide]	> 6.00	
CCC1(CC)CN(C(C)C)c2nc(Nc3ccc(C(=O)NC4CCN(C)CC4)cc3OC)ncc2N(C)C1=O [Example 304, 4-[(4,4-diethyl-6-methyl-5-oxo-2-propan-2-yl-2,6,9,11-tetrazabicyclo[5.4.0]undeca-7,9,11-trien-10-yl)amino]-3-methoxy-N-(1-methyl-4-piperidyl)benzamide]	> 6.52	

Second part, led by results:

pIC50 (HT-29, 24 h, HT29 cells)	SMILES	pIC50 (HT-29, HT29 cells, 24 h)
> 6.52	COc1cc(C(=O)NC2CCN(C)C3CCCCC23)ccc1Nc1ncc2c(n1)N(C1CCCC1)CCC(=O)N2C (single isomer, unassigned) [Example 342, 4-[(2-cyclopentyl-6-methyl-5-oxo-2,6,9,11-tetrazabicyclo[5.4.0]undeca-7,9,11-trien-10-yl)amino]-3-methoxy-N-(1-methyl-3,4,4a,5,6,7,8,8a-octahydro-2H-quinolin-4-yl)benzamide]	
> 4.52	CN1C(=O)CCN(C2CCCC2)c2nc(Nc3cccc(C(N)=O)c3)ncc21 [Example 167, 3-[(6-cyclopentyl-2-methyl-3-oxo-2,6,8,10-tetrazabicyclo[5.4.0]undeca-8,10,12-trien-9-yl)amino]benzamide]	
> 4.52	CN1C(=O)CCN(C2CCCC2)c2nc(Nc3cccc(-c4ccccc4)c3)ncc21 [Example 171, 6-cyclopentyl-2-methyl-9-[(3-phenylphenyl)amino]-2,6,8,10-tetrazabicyclo[5.4.0]undeca-8,10,12-trien-3-one]	
> 6.00	COc1cc(C(=O)O)ccc1Nc1ncc2c(n1)N(C1CCCC1)CC(C)(C)C(=O)N2C [Example 242, 4-[(2-cyclopentyl-4,4,6-trimethyl-5-oxo-2,6,9,11-tetrazabicyclo[5.4.0]undeca-7,9,11-trien-10-yl)amino]-3-methoxy-benzoic acid]	
> 4.52	CCOc1cc(C(=O)NC2CCN(C)CC2)c(F)cc1Nc1ncc2c(n1)N(C(C)C)CCC(=O)N2C [Example 287, 5-ethoxy-2-fluoro-4-[(6-methyl-5-oxo-2-propan-2-yl-2,6,9,11-tetrazabicyclo[5.4.0]undeca-7,9,11-trien-10-yl)amino]-N-(1-methyl-4-piperidyl)benzamide]	
> 6.00	CC(C)N1CC(C)(C)C(=O)N(C)c2cnc(Nc3cc(F)c(C(=O)NC4CCN(C)CC4)cc3Cl)nc21 [Example 289, 5-chloro-2-fluoro-N-(1-methyl-4-piperidyl)-4-[(4,4,6-trimethyl-5-oxo-2-propan-2-yl-2,6,9,11-tetrazabicyclo[5.4.0]undeca-7,9,11-trien-10-yl)amino]benzamide]	
> 6.52	COc1cc(C(=O)N[C@@H]2CCN(C)C2)c(F)cc1Nc1ncc2c(n1)N(C(C)C)CC(C)(C)C(=O)N2C [Example 292, 2-fluoro-5-methoxy-N-[(3R)-1-methylpyrrolidin-3-yl]-4-[(4,4,6-trimethyl-5-oxo-2-propan-2-yl-2,6,9,11-tetrazabicyclo[5.4.0]undeca-7,9,11-trien-10-yl)amino]benzamide]	
> 6.00	CCOc1cc(C(=O)N[C@@H]2CCN(C)C2)ccc1Nc1ncc2c(n1)N(C(C)C)CC(C)(C)C(=O)N2C [Example 293, 3-ethoxy-N-[(3R)-1-methylpyrrolidin-3-yl]-4-[(4,4,6-trimethyl-5-oxo-2-propan-2-yl-2,6,9,11-tetrazabicyclo[5.4.0]undeca-7,9,11-trien-10-yl)amino]benzamide]	
> 6.52	COc1cc(C(=O)NCCCN(C)C)ccc1Nc1ncc2c(n1)N(C(C)C)CC(C)(C)C(=O)N2C [Example 303, N-(3-dimethylaminopropyl)-3-methoxy-4-[(4,4,6-trimethyl-5-oxo-2-propan-2-yl-2,6,9,11-tetrazabicyclo[5.4.0]undeca-7,9,11-trien-10-yl)amino]benzamide]	
> 6.52	CCN1CCC(NC(=O)c2ccc(Nc3ncc4c(n3)N(C(C)C)CC(CC)(CC)C(=O)N4C)c(OC)c2)CC1 [Example 305, 4-[(4,4-diethyl-6-methyl-5-oxo-2-propan-2-yl-2,6,9,11-tetrazabicyclo[5.4.0]undeca-7,9,11-trien-10-yl)amino]-N-(1-ethyl-4-piperidyl)-3-methoxy-benzamide]	
> 6.52	CCN1CCC(NC(=O)c2cc(OC)c(Nc3ncc4c(n3)N(C(C)C)CC(CC)(CC)C(=O)N4C)cc2F)CC1 [Example 308, 4-[(4,4-diethyl-6-methyl-5-oxo-2-propan-2-yl-2,6,9,11-tetrazabicyclo[5.4.0]undeca-7,9,11-trien-10-yl)amino]-N-(1-ethyl-4-piperidyl)-2-fluoro-5-methoxy-benzamide]	
> 6.00	CCC1(CC)CN(C(C)C)c2nc(Nc3ccc(C(=O)NCC(C)(C)CN4CCCC4)cc3OC)ncc2N(C)C1=O [Example 309, 4-[(4,4-diethyl-6-methyl-5-oxo-2-propan-2-yl-2,6,9,11-tetrazabicyclo[5.4.0]undeca-7,9,11-trien-10-yl)amino]-N-(2,2-dimethyl-3-pyrrolidin-1-yl-propyl)-3-methoxy-benzamide]	
